Data set [1] is described as follows: Water solubility by quantitative 1H NMR of saturated solution. Format: physicochemical. To be noted: saturated solution in D2O, heated to 40 °C and sonicated 90 min, cooled to room temperature, quantitative 1HNMR vs Me2SO2. The method, then: (§1) For determining the solubility of investigated compounds, 5 mg of the selected gold(I) complex was suspended in an Eppendorf test tube with 300 μL of D2O and 300 μL of a Me2SO2/D2O solution 6.94 mM (Me2SO2 final conc. 3.47 mM). The suspension was heated to 40 °C and sonicated for 90 min. The resulting saturated solution was left to cool to room temperature, decanted, transferred to an NMR tube and then analyzed through quantitative ^1HNMR spectroscopy (tilt angle = 45°; recycle delay = 4 s; number of scans = 16). The concentration (solubility) was calculated by the relative integral (related to phosphine or phosphite -CH3 groups) with respect to Me2SO2 singlet (δ = 3.14 ppm). LogP values were determined through a modification of the shake-flask method reported in [22]. More precisely, in a 15 mL Falcon tube, roughly 2 mg of the sample was added in 2 mL of n-octanol-saturated water and 2 mL of water-saturated n-octanol. The mixture was hand shaken for ten minutes, and then 0.5 mL of each phase were moved in two different mineralization tubes together with 1 mL of metal-free concentrated nitric acid. The mixtures were heated overnight at 90 °C, then diluted with 4.5 mL of ultrapure water. The gold concentration in each sample was determined through ICP-OES and the respective LogP values were calculated through the ratio between octanol and water gold concentrations.

On the set-up of data set [2]: method as in PMID 29057040. To be noted: reported values; cited from earlier work.
Data set [3] is described as follows: LogP, modified shake-flask method with ICP-OES gold determination. Format: physicochemical. To be noted: n-octanol/water, gold concentration by ICP-OES. The method, then: as §1
Data set [4] concerns A2780 ovarian cancer cells. Kind of data set: MTT cytotoxicity assay, A2780. In kind it is cell-based, human. To be noted: A2780, 72 h of treatment, three independent experiments. The method, then: (§2) RPMI 1640 cell culture medium, fetal bovine serum (FBS), and phosphate-buffered saline (PBS) were obtained from Euroclone (Milan, Italy). Thiazolyl blue tetrazolium bromide (MTT) was obtained from Merck Life Science (Milan, Italy). The human ovarian cancer cell lines A2780, A2780/CDDP-R (cisplatin-resistant) and SKOV3 were obtained from ATCC. Cell lines were maintained in RPMI-1640 supplemented with 10% fetal calf serum (FCS) and antibiotics (penicillin, 100 U/mL; streptomycin, 100 μg/mL) at 37 °C in a 5% CO2 humidified atmosphere and subcultured twice weekly. Split 1:5 (3–6 × 10^4 cells per mL).
(§3) The cytotoxic effects of auranofin analogues on ovarian cancer cell lines were determined by using the colourimetric MTT (3-(4,5-dimethylthiazol-2-yl)-2,5-diphenyltetrazolium bromide) assay. Viable cells can metabolize MTT into formazan, a blue-coloured compound that is detectable at 595 nm. […] Following precipitation, blue formazan was dissolved in 100 µL of DMSO, and the optical density was read in a microplate reader interfaced with Microplate Manager/PV version 4.0 software (BioRad Laboratories, Hercules, CA, USA). From the absorbance measurements, the half-maximal inhibitory concentration (IC50) value of each compound on ovarian cancer cells was calculated using GraphPad Prism software version 6.0 (Graphpad Holdings, LLC, Boston, MA, USA). […]
In general terms: Formazan colour is commonly taken as a measure of viable cells.

The subject of data set [5] is cisplatin-resistant A2780 (A2780R) ovarian cancer cells. Kind of data set: MTT cytotoxicity assay, A2780R. Format: cell-based, human. To be noted: 72 h of treatment, three independent experiments. The method, then:
as §2, §3

The test system of data set [6] is SKOV-3 ovarian cancer cells. Kind of data set: MTT cytotoxicity assay, SKOV-3. Format: cell-based, human. To be noted: SKOV-3, 72 h of treatment, three independent experiments. The method, then:
as §2, §3

In data set [7] the test system is thioredoxin reductase (TrxR). To be noted: A2780 cells, 24 h of treatment at the 72 h exposure IC50 dose. The method, then:
The analysis was performed in triplicate.
Experiments were performed in triplicate.

The subject of data set [8] is thioredoxin reductase (TrxR). The arrangement: method as in PMID 32497830. To be noted: auranofin, previously demonstrated; cited from earlier work.

This is an account of results in article PMC9920260, “Chemical Modification of Auranofin Yields a New Family of Anticancer Drug Candidates: The Gold(I) Phosphite Analogues” (Molecules, 2023).

Where two headings read alike, the source gives them in different places.

One may read the LogP as a log measure of how a compound divides between an organic and an aqueous phase. `CCP(CC)CC.[Au+].[Cl-]` [Au(PEt3)Cl]: the Water solubility in data set [1] was 0.68 millimolar. The LogP in data set [2] was 1.7.
The IC50 is the concentration that gives 50% inhibition. A low value points to greater potency in that assay. As for `CO[PH](OC)(OC)[Au][S]C1OC(COC(C)=O)C(OC(C)=O)C(OC(C)=O)C1OC(C)=O` (stereo not shown) [AuP(OCH3)3SAtg], the Water solubility in data set [1] worked out at 2.76 millimolar. In data set [3], this compound yielded a LogP of −0.7. Besides, the figures for the half-maximal inhibitory concentration (IC50) in data set [4], in data set [5] and in data set [6] were 1260 ± 220 nM, 2980 ± 230 nM and 2440 ± 320 nM, respectively. For the same compound, in data set [7], the “residual TrxR enzyme activity with respect to controls” value is “about 55%”.
In data set [1], `CC[P](CC)(CC)[Au][I]` [Au(PEt3)I] displayed a Water solubility of 0.08 millimolar. Further, the LogP in data set [2] was 4.6.
In the case of `CC(=O)OC[C@H]1O[C@@H]([S-])[C@H](OC(C)=O)[C@@H](OC(C)=O)[C@@H]1OC(C)=O.CCP(CC)CC.[Au+]` [auranofin, 1-Thio-β-D-glucopyranosatotriethylphosphine gold-2,3,4,6-tetraacetate], the Water solubility in data set [1] is 0.34 millimolar. In data set [2], the lipophilicity (LogP) is given as 1.6. Also, the “inhibition of TrxR activity” value in data set [8] is on record as 40–50%.
